Legend:
[1] = target: bovine serum albumin (BSA) (Bos taurus, UniProt P02769); assay: ReACT labeling of BSA, CuAAC with Cy3-azide, in-gel fluorescence imaging
Procedure: FIG. 1A Left panel: Acid-base conjugation strategies for cysteine-based protein functionalization; Right panel: Redox-Activated Chemical Tagging (ReACT) strategies for methionine-based protein functionalization. Oxaziridine (Ox) compounds serve as oxidant-sulfimide conjugation product. (B) Model redox conjugation reaction with 25 μM of N-acetyl-L-methionine methyl ester (Si) and 27.5 μM of various oxaziridine compounds as substrates in co-solvent. (C) Number of unique redox conjugation carrying peptide on representative amino acid, namely Met, Lys and Cys by labeling HeLa cell lysate with Ox4 at the final concentration of 1 mM for 10 min. (D) Yield of conjugation reaction was performed with 15 μM of BSA carrying 4 methionine per protein and 100 μM Ox4 at indicated time point as measured by in-gel fluorescence imaging.
ReACT as a method for site-selective methionine conjugation of proteins was evaluated. […] The resulting redox conjugation yield to BSA was analyzed by in-gel fluorescence imaging. […] The reactivity of various alkyne- and azide-containing oxaziridine probes with CaM model protein was assessed (FIG. 2B). […]

[2] = Stability of redox conjugation product sulfimide (NMR); assay type: physicochemical; settings: salt form under strong acidic condition
Procedure: The reactivity of oxaziridine probes with other biologically relevant amino acid competitors was evaluated. […] HeLa cell lysates were treated with Ox4, trypsin digested, and then analyzed by LC-MS/MS for probe modification on all nucleophilic amino acids using the X!Tandem program^43. […] Finally, the chemical stability of the sulfimide methionine conjugation product was tested, finding that this linkage is resistant to acidic and basic conditions, elevated temperature, as well as treatment with a strong protein disulfide reducing agent such as tris(2-carboxyethyl)phophine (TCEP).
The stability of sulfimides were tested by treatment of sulfimides S2 with 5 mM TCEP or treatment of sulfimides S3 with 1 N HC1, 1 N NaOH or 80° C. in co-solvent (d-MeOD/D2O=1:1). The reactions were monitored by NMR after 1 h and 18 h and the reaction conversions were calculated based on NMR data.

Sequence of bovine serum albumin (BSA) (P02769 25-607): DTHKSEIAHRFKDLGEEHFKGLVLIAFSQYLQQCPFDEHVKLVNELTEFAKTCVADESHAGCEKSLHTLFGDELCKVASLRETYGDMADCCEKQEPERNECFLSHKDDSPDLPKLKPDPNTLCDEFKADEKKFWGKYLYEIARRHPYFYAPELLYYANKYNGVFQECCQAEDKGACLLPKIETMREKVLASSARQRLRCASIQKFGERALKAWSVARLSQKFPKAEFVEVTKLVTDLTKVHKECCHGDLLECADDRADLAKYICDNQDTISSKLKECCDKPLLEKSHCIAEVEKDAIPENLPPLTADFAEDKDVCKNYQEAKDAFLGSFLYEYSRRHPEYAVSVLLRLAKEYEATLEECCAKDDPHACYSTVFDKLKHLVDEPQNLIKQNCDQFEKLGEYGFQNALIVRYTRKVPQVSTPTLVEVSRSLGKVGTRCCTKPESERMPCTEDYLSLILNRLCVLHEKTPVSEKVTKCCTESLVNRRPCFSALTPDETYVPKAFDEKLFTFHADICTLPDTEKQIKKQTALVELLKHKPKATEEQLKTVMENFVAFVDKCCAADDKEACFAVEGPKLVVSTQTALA

redox conjugation yield to BSA ([1]; within 1-2 min, 15 μM BSA, 100 μM Ox4) | labeling of BSA ([1]; within the first 5 s following addition of Ox4) | stability in aqueous solution [2] | SMILES
> 95% | 50% |  | C#CCNC(=O)N1OC1c1ccccc1 (stereo not drawn) [Ox4, 3-Phenyl-N-(prop-2-yn-1-yl)-1,2-oxaziridine-2-carboxamide]
 |  | stable in aqueous solution | CCNC(=O)N[S+](C)c1ccccc1.[Cl-] (stereo not drawn) [Ox S4]

Reference: US11353463B2, “Redox-based reagents for methionine bioconjugation” (The Regents of the University of California, priority 2016, dated 2022)
